Calls of active or inactive are those of the source. The rule behind the calls is not given here.
Key:
[1] = target: D(1A) dopamine receptor (Homo sapiens) (UniProt P21728); experiment: D1 (h) CEREP screen; settings: Compound concentration 10.0 uM
[2] = target: Bile acid receptor (Homo sapiens, UniProt Q96RI1); experiment: FXR In-house nuclear receptor screen
[3] = target: Thyroid hormone receptor alpha (Homo sapiens) (UniProt P10827); experiment: TRalpha Indigo Bioscience nuclear receptor screen; settings: Compound concentration 0.3 uM
[4] = target: Proto-oncogene tyrosine-protein kinase Src (Homo sapiens) (UniProt P12931); experiment: SRC Invitrogen kinase panel; settings: Compound concentration 10.0 uM
[5] = target: Platelet-derived growth factor receptor beta (Homo sapiens) (UniProt P09619); experiment: PDGFRbeta Invitrogen kinase panel; settings: Compound concentration 10.0 uM
[6] = target: Tyrosine-protein kinase JAK3 (Homo sapiens) (UniProt P52333); experiment: JAK3 Invitrogen kinase panel; settings: Compound concentration 10.0 uM
[7] = target: 5-hydroxytryptamine receptor 5A (Homo sapiens) (UniProt P47898); experiment: 5-HT5A (h) CEREP screen
Sequence of 5-hydroxytryptamine receptor 5A (Homo sapiens) (P47898 whole entry): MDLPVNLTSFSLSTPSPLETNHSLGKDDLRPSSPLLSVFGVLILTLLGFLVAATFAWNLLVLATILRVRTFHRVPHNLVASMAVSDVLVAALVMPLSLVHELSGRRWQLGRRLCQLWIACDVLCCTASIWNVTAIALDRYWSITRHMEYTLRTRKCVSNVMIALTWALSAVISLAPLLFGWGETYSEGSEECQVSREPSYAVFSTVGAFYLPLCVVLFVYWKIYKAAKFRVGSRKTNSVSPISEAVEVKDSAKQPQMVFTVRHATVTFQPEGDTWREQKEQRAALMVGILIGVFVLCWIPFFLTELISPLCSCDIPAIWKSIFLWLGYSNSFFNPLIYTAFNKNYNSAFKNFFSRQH

[8] = target: Casein kinase II subunit alpha' (Homo sapiens) (UniProt P19784); experiment: CK2alpha2 Invitrogen kinase panel; settings: Compound concentration 10.0 uM
[9] = target: Estrogen receptor beta (Homo sapiens) (UniProt Q92731); experiment: ERbeta In-house nuclear receptor screen; settings: Compound concentration 3.0 uM
Sequence of Estrogen receptor beta (Homo sapiens) (Q92731 whole entry): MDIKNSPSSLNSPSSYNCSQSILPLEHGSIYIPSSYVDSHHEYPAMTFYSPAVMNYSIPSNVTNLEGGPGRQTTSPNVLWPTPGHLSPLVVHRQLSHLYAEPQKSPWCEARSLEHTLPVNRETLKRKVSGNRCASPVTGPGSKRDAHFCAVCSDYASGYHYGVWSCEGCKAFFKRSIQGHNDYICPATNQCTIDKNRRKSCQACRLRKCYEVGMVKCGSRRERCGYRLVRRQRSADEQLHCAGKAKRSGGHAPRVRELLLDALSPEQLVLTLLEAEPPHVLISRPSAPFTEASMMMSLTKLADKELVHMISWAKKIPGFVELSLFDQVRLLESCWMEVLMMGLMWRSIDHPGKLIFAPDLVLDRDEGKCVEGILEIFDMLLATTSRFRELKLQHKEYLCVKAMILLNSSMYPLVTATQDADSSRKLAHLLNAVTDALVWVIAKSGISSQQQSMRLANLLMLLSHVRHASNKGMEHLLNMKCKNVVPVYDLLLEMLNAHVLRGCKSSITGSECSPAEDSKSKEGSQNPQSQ

[10] = target: Delta-type opioid receptor (Homo sapiens) (UniProt P41143); settings: Compound concentration 10.0 uM
[11] = target: Fibroblast growth factor receptor 1 (Homo sapiens) (UniProt P11362); experiment: FGFR1 Invitrogen kinase panel; settings: Compound concentration 10.0 uM
[12] = target: Serine/threonine-protein kinase PAK 4 (Homo sapiens) (UniProt O96013); experiment: PAK4 Invitrogen kinase panel; settings: Compound concentration 10.0 uM
[13] = target: Proto-oncogene tyrosine-protein kinase receptor Ret (Homo sapiens) (UniProt P07949); experiment: Ret Invitrogen kinase panel; settings: Compound concentration 10.0 uM
Sequence of Proto-oncogene tyrosine-protein kinase receptor Ret (Homo sapiens) (P07949 whole entry): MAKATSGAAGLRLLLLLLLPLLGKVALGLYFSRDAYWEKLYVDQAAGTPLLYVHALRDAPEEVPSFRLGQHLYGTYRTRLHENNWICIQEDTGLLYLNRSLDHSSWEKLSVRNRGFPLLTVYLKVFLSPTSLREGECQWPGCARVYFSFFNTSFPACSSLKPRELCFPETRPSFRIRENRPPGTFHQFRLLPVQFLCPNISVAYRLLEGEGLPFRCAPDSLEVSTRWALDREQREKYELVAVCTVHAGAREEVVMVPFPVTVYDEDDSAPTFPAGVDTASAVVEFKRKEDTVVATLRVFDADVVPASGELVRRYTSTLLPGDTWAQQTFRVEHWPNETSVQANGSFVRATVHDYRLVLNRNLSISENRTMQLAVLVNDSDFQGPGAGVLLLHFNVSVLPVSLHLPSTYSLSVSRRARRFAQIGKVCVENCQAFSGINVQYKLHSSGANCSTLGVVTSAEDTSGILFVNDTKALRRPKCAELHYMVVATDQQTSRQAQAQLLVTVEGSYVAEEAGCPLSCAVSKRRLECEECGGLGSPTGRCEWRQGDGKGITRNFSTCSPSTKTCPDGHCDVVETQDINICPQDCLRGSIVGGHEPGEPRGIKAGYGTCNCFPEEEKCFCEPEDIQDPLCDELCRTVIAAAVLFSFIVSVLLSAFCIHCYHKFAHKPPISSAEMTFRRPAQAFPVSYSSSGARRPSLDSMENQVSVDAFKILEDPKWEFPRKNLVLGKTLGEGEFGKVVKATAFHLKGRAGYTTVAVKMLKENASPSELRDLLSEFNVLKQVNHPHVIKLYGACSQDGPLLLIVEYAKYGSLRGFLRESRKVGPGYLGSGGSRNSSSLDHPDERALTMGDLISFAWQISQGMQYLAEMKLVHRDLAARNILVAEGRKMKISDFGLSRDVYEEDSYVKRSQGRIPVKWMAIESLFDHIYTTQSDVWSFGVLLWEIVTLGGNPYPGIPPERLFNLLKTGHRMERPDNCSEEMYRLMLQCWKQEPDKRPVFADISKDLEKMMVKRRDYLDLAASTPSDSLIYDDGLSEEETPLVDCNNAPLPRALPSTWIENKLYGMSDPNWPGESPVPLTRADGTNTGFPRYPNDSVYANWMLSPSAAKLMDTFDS

[14] = target: Mitogen-activated protein kinase 12 (Homo sapiens) (UniProt P53778); experiment: p38gamma Invitrogen kinase panel; settings: Compound concentration 10.0 uM
[15] = target: Cyclin-dependent kinase 1/cyclin B (Homo sapiens) (UniProt P06493+P14635+Q8WWL7+O95067); experiment: CDK1/cyclinB Invitrogen kinase panel; type: protein-complex assay; settings: Compound concentration 10.0 uM
[16] = target: D(1B) dopamine receptor (Homo sapiens) (UniProt P21918); settings: Compound concentration 10.0 uM
[17] = target: Histamine H3 receptor (Homo sapiens) (UniProt Q9Y5N1); settings: Compound concentration 10.0 uM
[18] = target: RAC-alpha serine/threonine-protein kinase (Homo sapiens) (UniProt P31749); experiment: PKBalpha Invitrogen kinase panel; settings: Compound concentration 10.0 uM
Sequence of RAC-alpha serine/threonine-protein kinase (Homo sapiens) (P31749 whole entry): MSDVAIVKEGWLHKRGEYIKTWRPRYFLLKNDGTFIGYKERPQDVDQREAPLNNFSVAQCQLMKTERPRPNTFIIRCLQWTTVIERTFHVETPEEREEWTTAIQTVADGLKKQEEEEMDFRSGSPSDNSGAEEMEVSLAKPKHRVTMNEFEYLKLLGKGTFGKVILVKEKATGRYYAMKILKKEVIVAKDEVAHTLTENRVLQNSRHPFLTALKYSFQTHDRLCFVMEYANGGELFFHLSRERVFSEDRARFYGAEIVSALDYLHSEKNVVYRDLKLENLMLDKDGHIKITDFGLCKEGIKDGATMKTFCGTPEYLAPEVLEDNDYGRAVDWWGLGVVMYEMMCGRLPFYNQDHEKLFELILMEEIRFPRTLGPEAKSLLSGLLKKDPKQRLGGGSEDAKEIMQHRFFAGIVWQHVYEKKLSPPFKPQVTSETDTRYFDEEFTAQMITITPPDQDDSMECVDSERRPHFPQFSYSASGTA

[19] = target: NT-3 growth factor receptor (Homo sapiens) (UniProt Q16288); experiment: TrkC Invitrogen kinase panel; settings: Compound concentration 10.0 uM
[20] = target: Endothelin-1 receptor (Homo sapiens) (UniProt P25101); experiment: ETA (h) CEREP screen; settings: Compound concentration 10.0 uM
[21] = target: Calcium/calmodulin-dependent protein kinase type 1D (Homo sapiens) (UniProt Q8IU85); experiment: CaMKIdelta Invitrogen kinase panel; settings: Compound concentration 10.0 uM
Sequence of Calcium/calmodulin-dependent protein kinase type 1D (Homo sapiens) (Q8IU85 whole entry, looked up): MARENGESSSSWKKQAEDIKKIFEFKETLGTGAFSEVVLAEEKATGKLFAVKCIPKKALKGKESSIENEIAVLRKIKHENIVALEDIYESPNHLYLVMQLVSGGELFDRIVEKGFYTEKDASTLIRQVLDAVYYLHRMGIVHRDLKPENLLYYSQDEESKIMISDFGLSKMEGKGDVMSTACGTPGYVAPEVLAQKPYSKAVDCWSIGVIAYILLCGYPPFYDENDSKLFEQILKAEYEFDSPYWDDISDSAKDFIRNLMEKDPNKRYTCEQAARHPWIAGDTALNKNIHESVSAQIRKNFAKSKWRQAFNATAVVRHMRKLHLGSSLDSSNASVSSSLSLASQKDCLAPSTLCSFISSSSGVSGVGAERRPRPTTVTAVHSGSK

[22] = target: Cyclin-dependent kinase 5/CDK5 activator 1 (Homo sapiens) (UniProt Q00535+Q15078); experiment: CDK5/p35 Invitrogen kinase panel; type: protein-complex assay; settings: Compound concentration 10.0 uM
[23] = target: Nuclear receptor ROR-gamma (Homo sapiens, UniProt P51449); experiment: Human whole blood assay; type: tissue-based; parameters: compound concentration 10 uM
Sequence of Nuclear receptor ROR-gamma (P51449 whole entry): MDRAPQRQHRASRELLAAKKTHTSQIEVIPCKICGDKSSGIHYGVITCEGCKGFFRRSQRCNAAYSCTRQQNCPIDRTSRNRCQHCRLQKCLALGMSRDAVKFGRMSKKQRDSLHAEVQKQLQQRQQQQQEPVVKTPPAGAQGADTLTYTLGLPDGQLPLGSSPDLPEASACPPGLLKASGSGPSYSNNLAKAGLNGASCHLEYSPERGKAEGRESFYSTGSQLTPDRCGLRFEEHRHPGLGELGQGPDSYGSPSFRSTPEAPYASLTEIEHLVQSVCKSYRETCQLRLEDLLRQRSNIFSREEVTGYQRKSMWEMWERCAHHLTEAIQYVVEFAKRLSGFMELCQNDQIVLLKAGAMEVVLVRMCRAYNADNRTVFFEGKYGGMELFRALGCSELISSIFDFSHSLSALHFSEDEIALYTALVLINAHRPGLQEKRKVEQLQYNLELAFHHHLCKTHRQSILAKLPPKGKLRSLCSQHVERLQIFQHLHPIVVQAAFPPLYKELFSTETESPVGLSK

[24] = target: Muscarinic acetylcholine receptor M3 (Homo sapiens) (UniProt P20309); experiment: M3 (h) CEREP screen
Sequence of Muscarinic acetylcholine receptor M3 (Homo sapiens) (P20309 whole entry, looked up): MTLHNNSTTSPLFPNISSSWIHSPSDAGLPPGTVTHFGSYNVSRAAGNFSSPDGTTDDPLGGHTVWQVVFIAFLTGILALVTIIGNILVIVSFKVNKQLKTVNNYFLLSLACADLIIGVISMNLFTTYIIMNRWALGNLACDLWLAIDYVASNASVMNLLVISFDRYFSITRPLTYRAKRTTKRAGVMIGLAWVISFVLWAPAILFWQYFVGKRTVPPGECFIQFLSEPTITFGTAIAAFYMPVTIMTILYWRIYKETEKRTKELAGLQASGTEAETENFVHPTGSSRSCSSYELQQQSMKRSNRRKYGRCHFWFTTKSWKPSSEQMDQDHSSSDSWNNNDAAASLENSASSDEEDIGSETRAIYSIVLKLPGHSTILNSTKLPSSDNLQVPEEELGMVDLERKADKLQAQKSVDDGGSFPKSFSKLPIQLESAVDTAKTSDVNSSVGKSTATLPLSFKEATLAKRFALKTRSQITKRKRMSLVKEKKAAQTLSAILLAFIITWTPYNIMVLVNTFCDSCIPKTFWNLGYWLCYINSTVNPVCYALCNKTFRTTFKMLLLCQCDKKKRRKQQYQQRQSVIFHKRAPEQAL

[25] = target: Casein kinase II subunit alpha (Homo sapiens) (UniProt P68400); experiment: CK2alpha1 Invitrogen kinase panel; settings: Compound concentration 10.0 uM
Sequence of Casein kinase II subunit alpha (Homo sapiens) (P68400 whole entry, looked up): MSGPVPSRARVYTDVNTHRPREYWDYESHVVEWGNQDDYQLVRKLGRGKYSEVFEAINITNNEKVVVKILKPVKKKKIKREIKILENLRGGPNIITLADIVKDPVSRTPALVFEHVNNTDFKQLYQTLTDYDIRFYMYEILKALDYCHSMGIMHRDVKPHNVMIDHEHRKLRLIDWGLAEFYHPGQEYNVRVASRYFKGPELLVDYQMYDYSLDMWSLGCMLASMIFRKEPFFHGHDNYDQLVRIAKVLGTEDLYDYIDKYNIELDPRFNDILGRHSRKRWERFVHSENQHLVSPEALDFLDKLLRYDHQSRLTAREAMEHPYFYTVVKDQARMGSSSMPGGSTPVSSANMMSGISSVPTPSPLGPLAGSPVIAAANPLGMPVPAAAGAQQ

[26] = target: Peroxisome proliferator-activated receptor alpha (Homo sapiens) (UniProt Q07869); experiment: PPARalpha Indigo Bioscience nuclear receptor screen; settings: Compound concentration 0.3 uM
[27] = target: Serine/threonine-protein kinase PAK 3 (Homo sapiens) (UniProt O75914); experiment: PAK3 Invitrogen kinase panel; settings: Compound concentration 10.0 uM
Sequence of Serine/threonine-protein kinase PAK 3 (Homo sapiens) (O75914 whole entry, looked up): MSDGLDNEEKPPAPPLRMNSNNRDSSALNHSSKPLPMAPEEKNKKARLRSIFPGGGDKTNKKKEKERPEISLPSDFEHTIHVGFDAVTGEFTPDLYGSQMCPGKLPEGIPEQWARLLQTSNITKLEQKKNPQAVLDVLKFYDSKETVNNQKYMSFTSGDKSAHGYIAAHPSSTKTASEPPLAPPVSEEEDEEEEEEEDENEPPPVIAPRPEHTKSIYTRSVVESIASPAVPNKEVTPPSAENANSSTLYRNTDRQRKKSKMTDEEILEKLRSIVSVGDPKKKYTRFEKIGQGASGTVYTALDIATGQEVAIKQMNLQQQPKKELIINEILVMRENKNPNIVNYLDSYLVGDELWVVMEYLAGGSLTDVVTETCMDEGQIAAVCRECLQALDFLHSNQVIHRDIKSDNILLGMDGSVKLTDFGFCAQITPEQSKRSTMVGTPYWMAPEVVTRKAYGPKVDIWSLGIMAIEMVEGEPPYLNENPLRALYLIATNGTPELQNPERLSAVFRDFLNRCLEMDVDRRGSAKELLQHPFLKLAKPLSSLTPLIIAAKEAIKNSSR

[28] = target: Serine/threonine-protein kinase Chk1 (Homo sapiens) (UniProt O14757); experiment: CHK1 Invitrogen kinase panel; settings: Compound concentration 10.0 uM
[29] = target: C-C chemokine receptor type 1 (Homo sapiens) (UniProt P32246); experiment: CCR1 (h) CEREP screen; settings: Compound concentration 1.0 uM
[30] = target: 5-hydroxytryptamine receptor 1D (Homo sapiens) (UniProt P28221); settings: Compound concentration 10.0 uM
[31] = target: T1, Glucocorticoid receptor (Homo sapiens) (UniProt P04150); experiment: GR Indigo Bioscience nuclear receptor screen
T1 sequence (whole entry): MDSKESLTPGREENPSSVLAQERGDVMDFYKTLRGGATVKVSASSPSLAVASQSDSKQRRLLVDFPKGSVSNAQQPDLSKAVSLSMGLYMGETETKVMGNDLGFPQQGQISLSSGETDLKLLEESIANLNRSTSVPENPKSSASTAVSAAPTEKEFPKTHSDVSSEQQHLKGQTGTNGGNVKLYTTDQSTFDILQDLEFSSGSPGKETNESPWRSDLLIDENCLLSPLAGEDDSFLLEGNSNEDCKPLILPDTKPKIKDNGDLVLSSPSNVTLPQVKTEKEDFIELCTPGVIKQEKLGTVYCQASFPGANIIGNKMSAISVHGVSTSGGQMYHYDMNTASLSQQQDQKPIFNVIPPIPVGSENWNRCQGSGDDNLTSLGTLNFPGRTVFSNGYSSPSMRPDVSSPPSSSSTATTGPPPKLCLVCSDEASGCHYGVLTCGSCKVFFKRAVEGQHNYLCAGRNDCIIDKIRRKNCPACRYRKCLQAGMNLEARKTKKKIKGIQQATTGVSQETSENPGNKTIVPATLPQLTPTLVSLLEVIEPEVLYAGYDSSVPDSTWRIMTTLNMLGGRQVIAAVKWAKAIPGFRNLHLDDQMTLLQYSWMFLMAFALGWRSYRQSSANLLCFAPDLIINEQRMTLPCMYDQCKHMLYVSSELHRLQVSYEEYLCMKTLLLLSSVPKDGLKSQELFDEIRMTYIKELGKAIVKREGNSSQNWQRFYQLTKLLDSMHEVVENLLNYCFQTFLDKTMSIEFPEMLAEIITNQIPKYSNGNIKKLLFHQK

[32] = target: Histamine H2 receptor (Homo sapiens) (UniProt P25021); settings: Compound concentration 10.0 uM

inhibition [1]: 16%
IC50 [2]: 5.8 µM
inhibition [3]: -5.63%
inhibition [4]: 4%
inhibition [5]: 5%
inhibition [6]: 2%
inhibition ([7]; Compound concentration 1.0 uM): 13%
inhibition ([7]; Compound concentration 10.0 uM): 23%
inhibition [8]: 4%
inhibition [9]: 31.2%
inhibition [10]: 7.18%
inhibition [11]: -2%
inhibition [12]: 4%
inhibition [13]: 3%
inhibition [14]: 2%
inhibition [15]: 0%
inhibition [16]: 33.9%
inhibition [17]: 0.46%
inhibition [18]: -5%
inhibition [19]: 3%
inhibition [20]: 12%
inhibition [21]: 7%
inhibition [22]: -2%
IC50 [23]: 0.332 µM (active)
inhibition ([24]; Compound concentration 1.0 uM): 21%
inhibition ([24]; Compound concentration 10.0 uM): 19%
inhibition [25]: 2%
inhibition [26]: 1.34%
inhibition [27]: 6%
inhibition [28]: 2%
inhibition [29]: 17%
inhibition [30]: 5.9%
inhibition ([31]; Compound concentration 0.3 uM): 4.11%
inhibition ([31]; Compound concentration 1.0 uM): 2.23%
inhibition ([31]; Compound concentration 3.0 uM): 12.6%
inhibition [32]: -0.99%
SMILES: COc1nc2ccc([C@@](O)(c3ccccc3)C3CCN(C(C)=O)CC3)cc2c(Cl)c1Cc1ccc(-n2cccn2)cc1 [JNJ-54119936]

Reference: ChEMBL document CHEMBL4800728, “Data for DCP probe JNJ-54119936” (2021)
